Results as given in EP2582674B1 (Cymabay Therapeutics, Inc., priority 2010, dated 2011).

Target: T1, human GPR120 (Homo sapiens, UniProt Q5NUL3)
T1 construct: host or cells: HEK293 cells co-expressing Gqi5
T1 sequence (Q5NUL3 1-361): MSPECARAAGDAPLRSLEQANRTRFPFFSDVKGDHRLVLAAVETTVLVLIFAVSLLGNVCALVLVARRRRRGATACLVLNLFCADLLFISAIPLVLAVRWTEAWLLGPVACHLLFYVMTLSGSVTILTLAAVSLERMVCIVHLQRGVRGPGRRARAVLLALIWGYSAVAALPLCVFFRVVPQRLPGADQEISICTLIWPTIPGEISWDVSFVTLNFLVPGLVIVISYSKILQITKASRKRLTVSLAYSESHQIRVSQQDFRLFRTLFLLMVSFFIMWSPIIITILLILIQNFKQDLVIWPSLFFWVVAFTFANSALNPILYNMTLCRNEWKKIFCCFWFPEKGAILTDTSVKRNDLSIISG
Assay: Intracellular Ca2+ assay in human GPR120 stable cell line (FLIPR Calcium 4 dye, Flexstation)
Format: cell-based
Settings: % activity at 2.5 µM compared to the maximal activity of the compound of Example 25 at 2.5 µM (=100%); HEK293 cells co-expressing Gqi5
Experimental: Human GPR120 stable cell line was purchased from Multispan Inc (26219 Eden Landing Road, Hayward, CA94545). This GPR120 cell line was generated in HEK293 cells co-expressing Gqi5. In this cell line, the Flag epitope tag (DYKDDDDK) was fused to the amino terminus of human GPR120 protein.
The concentration of intracellular Ca^2+ was measured as described below. Human GPR120 cells were plated in 96 well plates (Poly-D-Lysine coated black/clear Plate, Greiner Bio-One) at 70,000 cells per well and cultured overnight in conditions of 37°C and 5% CO2. A Ca^2+ assay dye stock solution was prepared by adding 10 mL of assay buffer (HBSS/20mM HEPES, pH 7.4) to FLIPR Calcium 4 Assay Bulk Kit (Molecular Devices). The 10 mL of Ca^2+ assay dye solution was prepared by further diluting 0.5 mL of Ca^2+ assay dye stock solution with 10 mL of assay buffer. The medium of the cells was removed and immediately 100 µL of the Ca^2+ assay dye solution was dispensed into each well followed by incubation at 37°C and 5% CO2 for 50 minutes to incorporate the Ca^2+ dye into the cells. The cell plate was then placed in the Flexstation (Molecular Devices) for 20 minutes at 37°C. Compounds were dissolved in 100% DMSO and diluted to desired concentrations with assay buffer and placed in the Flexstation simultaneously with the cell plate for 20 minute incubation at 37°C prior to reading. Fluorescence intensity was measured immediately following compound addition (25 µL/well) on the Flexstation at an excitation wavelength of 485 nm and an emission wavelength of 525 with 515 nm auto cutoff. The resulting increase in fluorescence intensities corresponds to increases in intracellular Ca^2+ levels.
Compounds were dissolved in 100% DMSO to a concentration of 20 mM to provide stock solutions. To determine activity against human GPR120, compounds were added with human GPR120 stably expressing cells (described above), at eight desired concentrations ranging from 0.00001 to 20 µM, in 96 well plates and fluorescence intensities were measured for 90 seconds with 2-second intervals. An EC50 value (concentration of the GPR120 agonist where 50% of the agonist's maximal activity is observed) was calculated using the changes (Max-Min) of fluorescence intensity.
To determine percent activity for a tested compound, the fluorescence intensity value obtained at a particular concentration were compared to the maximal fluorescence intensity value obtained for reference compound GW9508 (4-[[(3-phenoxyphenyl)methyl]amino]benzene propanoic acid; British Journal of Pharmacology 2006 148, 619-628) or the compound of Example 25. When GW9508 was used as the reference compound, the maximal activity of GW9508 at 6.7µM was designated as 100% activity. When the compound of Example 25 was used as the reference compound, the maximal activity of the compound of Example 25 at 2.5 µM was designated as 100% activity. Typically, the GW9508 activity reached a maximum at a concentration of approximately 6.7 µM and typically the compound of Example 25 reached a maximum activity at approximately 2.5µM. […]

Compound	% Activity (Ex. 25 Reference Compound)
2-(4-((5-fluoro-3H-spiro[benzofuran-2,1'-cyclopentane]-7-yl)methoxy)phenyl)cyclopropanecarboxylic acid [Example 165]	158.08%
CC1(C)Cc2cc(F)cc(COc3c(F)cc(CC4CC4C(=O)O)cc3F)c2O1 (single isomer, unassigned) [Example 184A, 2-(3,5-difluoro-4-((5-fluoro-2,2-dimethyl-2,3-dihydrobenzofuran-7-yl)methoxy)benzyl)cyclopropanecarboxylic acid]	95.58%
CC1(C)Cc2cc(F)cc(COc3c(F)cc(CC4CC4C(=O)O)cc3F)c2O1 (single isomer, unassigned) [Example 184B, 2-(3,5-difluoro-4-((5-fluoro-2,2-dimethyl-2,3-dihydrobenzofuran-7-yl)methoxy)benzyl)cyclopropanecarboxylic acid]	130.66%

Same assay, conditions: HEK293, % activity at 5 µM compared to the maximal activity of GW9508 at 6.7 µM (=100%); HEK293 cells co-expressing Gqi5; read-out: %Activity (GW9508 Reference Compound)

Compound	activity at 5 µM
CC(Cc1cc(F)c(OCc2cccc3c2OC(C)(C)CC3)c(F)c1)C(=O)O (stereo not drawn) [Example 2, 3-(4-((2,2-dimethylchroman-8-yl)methoxy)-3,5-difluorophenyl)-2-methylpropanoic acid]	135%
CC(Cc1cc(F)c(OCc2cccc3c2OCC3)c(F)c1)C(=O)O (stereo not drawn) [Example 3, 3-(4-((2,3-dihydrobenzofuran-7-yl)methoxy)-3,5-difluorophenyl)-2-methylpropanoic acid]	124%
Cc1cc(COc2ccc(CC(C)C(=O)O)cc2)c2c(c1)CC(C)(C)O2 (stereo not drawn) [Example 4, 2-methyl-3-(4-((2,2,5-trimethyl-2,3-dihydrobenzofuran-7-yl)methoxy)phenyl)propanoic acid]	111%
Cc1cc(COc2c(F)cc(CC(C)C(=O)O)cc2F)c2c(c1)CC(C)(C)O2 (stereo not drawn) [Example 5, 3-(3,5-difluoro-4-((2,2,5-trimethyl-2,3-dihydrobenzofuran-7-yl)methoxy)phenyl)-2-methylpropanoic acid]	149%
Cc1cc(CC(C)C(=O)O)ccc1OCc1cc(F)cc2c1OC(C)(C)C2 (stereo not drawn) [Example 6, 3-(4-((5-fluoro-2,2-dimethyl-2,3-dihydrobenzofuran-7-yl)methoxy)-3-methylphenyl)-2-methylpropanoic acid]	147%
COc1cc(CC(C)C(=O)O)ccc1OCc1cc(F)cc2c1OC(C)(C)C2 (stereo not drawn) [Example 7, 3-(4-((5-fluoro-2,2-dimethyl-2,3-dihydrobenzofuran-7-yl)methoxy)-3-methoxyphenyl)-2-methylpropanoic acid]	168%
CC(Cc1ccc(OCc2cc(F)cc3c2OC(C)(C)C3)c(F)c1)C(=O)O (stereo not drawn) [Example 8, 3-(3-fluoro-4-((5-fluoro-2,2-dimethyl-2,3-dihydrobenzofuran-7-yl)methoxy)phenyl)-2-methylpropanoic acid]	135%
Cc1cc(CC(C)C(=O)O)ccc1OCc1cc(Cl)cc2c1OC(C)(C)C2 (stereo not drawn) [Example 11, 3-(4-((5-chloro-2,2-dimethyl-2,3-dihydrobenzofuran-7-yl)methoxy)-3-methylphenyl)-2-methylpropanoic acid]	124%
CC(Cc1ccc(OCc2cc(Cl)cc3c2OC(C)(C)C3)c(Cl)c1)C(=O)O (stereo not drawn) [Example 12, 3-(3-chloro-4-((5-chloro-2,2-dimethyl-2,3-dihydrobenzofuran-7-yl)methoxy)phenyl)-2-methylpropanoic acid]	116%
CC(Cc1cc(Cl)c(OCc2cc(Cl)cc3c2OC(C)(C)C3)c(Cl)c1)C(=O)O (stereo not drawn) [Example 14, 3-(3,5-dichloro-4-((5-chloro-2,2-dimethyl-2,3-dihydrobenzofuran-7-yl)methoxy)phenyl)-2-methylpropanoic acid]	84.5%
COc1cc(CC(C)C(=O)O)ccc1OCc1cc(Cl)cc2c1OC(C)(C)C2 (stereo not drawn) [Example 15, 3-(4-((5-chloro-2,2-dimethyl-2,3-dihydrobenzofuran-7-yl)methoxy)-3-methoxyphenyl)-2-methylpropanoic acid]	109%
CC(Cc1ccc(OCc2cccc3c2CC(C)(C)O3)cc1)C(=O)O (stereo not drawn) [Example 17, 3-(4-((2,2-dimethyl-2,3-dihydrobenzofuran-4-yl)methoxy)phenyl)-2-methylpropanoic acid]	72.2%
CC(Cc1cc(F)c(OCc2cc(F)cc3c2OC(C)(C)C3)c(F)c1)C(=O)O (stereo not drawn) [Example 18, 3-(3,5-difluoro-4-((5-fluoro-2,2-dimethyl-2,3-dihydrobenzofuran-7-yl)methoxy)phenyl)-2-methylpropanoic acid]	130%
CC1(C)Cc2cc(F)cc(COc3c(F)cc(C4CC4C(=O)O)cc3F)c2O1 (stereo not drawn) [Example 19, 2-(3,5-difluoro-4-((5-fluoro-2,2-dimethyl-2,3-dihydrobenzofuran-7-yl)methoxy)phenyl)cyclopropanecarboxylic acid]	126%
CC1Cc2cccc(COc3c(F)cc(CCC(=O)O)cc3F)c2O1 (stereo not drawn) [Example 20]	138%
CC(Cc1cc(F)c(OCc2cccc3c2CC(C)(C)O3)c(F)c1)C(=O)O (stereo not drawn) [Example 21, 3-(4-((2,2-dimethyl-2,3-dihydrobenzofuran-4-yl)methoxy)-3,5-difluorophenyl)-2-methylpropanoic acid]	113%
CC1(C)Cc2c(COc3c(F)cc(C4CC4C(=O)O)cc3F)cccc2O1 (stereo not drawn) [Example 22, 2-(4-((2,2-dimethyl-2,3-dihydrobenzofuran-4-yl)methoxy)-3,5-difluorophenyl) cyclopropanecarboxylic acid]	126%
CC(Cc1cc(F)c(OCc2cccc3c2OC(C)(C)C3)c(F)c1)C(=O)O (stereo not drawn) [Example 23, 3-(4-((2,2-dimethyl-2,3-dihydrobenzofuran-7-yl)methoxy)-3,5-difluorophenyl)-2-methylpropanoic acid]	113%
CC1(C)Cc2cccc(COc3c(F)cc(C4CC4C(=O)O)cc3F)c2O1 (stereo not drawn) [Example 24, 2-(4-((2,2-dimethyl-2,3-dihydrobenzofuran-7-yl)methoxy)-3,5-difluorophenyl) cyclopropanecarboxylic acid]	100%
CC1(C)Cc2cccc(COc3c(F)cc(CCC(=O)O)cc3F)c2O1 [Example 25, 3-(4-((2,2-dimethyl-2,3-dihydrobenzofuran-7-yl)methoxy)-3,5-difluorophenyl)propanoic acid]	102%
CC(Cc1ccc(OCc2cc(Cl)cc3c2OC(C)(C)C3)cc1Cl)C(=O)O (stereo not drawn) [Example 26, 3-(2-chloro-4-((5-chloro-2,2-dimethyl-2,3-dihydrobenzofuran-7-yl)methoxy)phenyl)-2-methylpropanoic acid]	164%
CC1(C)Cc2c(F)ccc(COc3c(F)cc(C4CC4C(=O)O)cc3F)c2O1 (stereo not drawn) [Example 27, 2-(3,5-difluoro-4-((4-fluoro-2,2-dimethyl-2,3-dihydrobenzofuran-7-yl)methoxy)phenyl)cyclopropanecarboxylic acid]	144%
CC(Cc1cc(F)c(OCc2ccc(F)c3c2OC(C)(C)C3)c(F)c1)C(=O)O (stereo not drawn) [Example 28, 3-(3,5-difluoro-4-((4-fluoro-2,2-dimethyl-2,3-dihydrobenzofuran-7-yl)methoxy)phenyl)-2-methylpropanoic acid]	110%

Same assay, conditions: typical value, reference compounds of the Ca2+ assay

Compound	concentration at which activity reached a maximum
CC1(C)Cc2cccc(COc3c(F)cc(CCC(=O)O)cc3F)c2O1 [Example 25, 3-(4-((2,2-dimethyl-2,3-dihydrobenzofuran-7-yl)methoxy)-3,5-difluorophenyl)propanoic acid]	approximately 2.5 µM
